Reference: patent US20020016384A1, “Hydrolysis-stable and polymerizable acrylophosphonic acid” (Ivoclar Vivadent AG., priority 2000, published 2002)

Tests used:
[1] = Investigation of the solubility in water and organic solvents; assay type: physicochemical
Source text: The solubility of monomers 3 and 5 and of a comparison monomer (comparison monomer 2; X=COO, Z=H) in water, ethanol, acetone, methylene chloride and ethyl acetate was investigated.
Solubility: ++: very good (>20 wt.-%), +: good (10-20 wt.-%), 0: practically insoluble (<1 wt.-%). [drawing 25]

[2] = Investigation of the hydrolytic stability by 1H-NMR; assay type: physicochemical; conditions: 20% solution in 1:1 water/ethanol; for change in the 1H-NMR spectrum (hydrolytic stability): stored at 37° C., 12-week investigation period, spectrum recorded weekly
Protocol: Monomers 3 and 5 are each dissolved in a 1:1 mixture of water and ethanol and stored as 20% solution at 37° C. The ^1H-NMR spectrum of the solution is recorded weekly.

SMILES | Solubility in acetone [1] | Solubility in ethanol [1] | Solubility in ethyl acetate [1] | Solubility in methylene chloride [1] | Solubility in water [1] | change in the 1H-NMR spectrum (hydrolytic stability) [2] | hydrolytic elimination of the ethoxy group ([2]; 37° C., after 3 months, 1H-NMR) [%]
C=C(COCCP(=O)(O)O)C(=O)O [Comparison monomer 2, reference compound] | 0 (practically insoluble (<1 wt.-%)) | 0 (practically insoluble (<1 wt.-%)) | 0 (practically insoluble (<1 wt.-%)) | 0 (practically insoluble (<1 wt.-%)) | ++ (very good (>20 wt.-%)) |  | 
C=C(COCCP(=O)(O)O)C(=O)N(CC)CC [Monomer 3, 2-[4-(dihydroxyphosphoryl)-2-oxabutyl]-acrylic acid diethylamide] | ++ (very good (>20 wt.-%)) | ++ (very good (>20 wt.-%)) | ++ (very good (>20 wt.-%)) | ++ (very good (>20 wt.-%)) | ++ (very good (>20 wt.-%)) | no change in the spectrum | 
C=C(C#N)COCCP(=O)(O)O [Monomer 5, 2-[4-(dihydroxyphosphoryl)-2-oxabutyl]-acrylonitrile] | ++ (very good (>20 wt.-%)) | ++ (very good (>20 wt.-%)) | ++ (very good (>20 wt.-%)) | ++ (very good (>20 wt.-%)) | ++ (very good (>20 wt.-%)) | no change in the spectrum | 
C=C(COCCP(=O)(OC)OC)C(=O)OCC [comparison monomer 1, 2-[4-(dimethoxyphosphoryl)-2-oxa-butyl]-acrylic acid ethyl ester, reference compound] |  |  |  |  |  |  | 20
